Common to all, as to assay type: cell-based
The subject of experiment [1] is EJ-1 cells. The experiment in a line: EJ-1 cell growth inhibition (direct antitumor action, CellTiterGlo). The conditions noted are these: for pIC50: EJ-1 (bladder cancer) growth inhibition, 4 days culture; for direct antitumor activity (in words): EJ-1 growth inhibition. On the procedure:
(§1) The direct antitumor action of bisphosphonic acid POM ester and bisphosphonic acid was studied by comparison using U937.
The direct antitumor action of bisphosphonic acid POM ester derivatives and bisphosphonic acids was studied by comparison using EJ-1. It was performed in the same manner as in Experimental Example 1 except that EJ-1 was used as the cell to be used. For recovery of the cells, a conventional EDTA trypsin treatment was performed.
The direct antitumor action of bisphosphonic acid POM esters and bisphosphonic acids was studied by comparison using EJ-1. It was performed in the same manner as in Experimental Example 2 except that EJ-1 was used as the cell to be used. For recovery of the cells, a conventional EDTA trypsin treatment was performed.
(§2) The direct antitumor action of various bisphosphonic acid POM esters was studied by comparison using U937 and EJ-1. The measurement was performed according to Experimental Example 2 and Experimental Example 4.
In general terms: Cellular ATP, detected with luciferase, serves as a proxy for viable cell number.

Experiment [2] has as its system EJ-1 cells / γδ T cells. The experiment in a line: TNF-α production from γδ T cells stimulated by compound-pretreated EJ-1 cells (indirect antitumor action, ELISA). The conditions noted are these: for pEC50: EJ-1 pretreated 4 hr with compound, 16 hr with γδ T cells, TNF-α ELISA, read-out: TNF-α50. The method, then:
The indirect antitumor action of bisphosphonic acid POM esters and bisphosphonic acids was studied by comparison using EJ-1. In principle, EJ-1 is treated with a compound, washed, and reacted with γδ T cells, and the cytotoxic ability is studied by comparison, by quantifying TNF-α produced by γδ T cells during cell disordering. TNF-α is generally used as an index of γδ T cell induction ability and/or proliferative capacity, and γδ T cells are considered to be induced and/or proliferated in proportion to the TNF-α amount (Journal of Immunology, 154, 5986-5994 (1995)). Since the produced TNF-α is what is called a tumor necrosis factor, it is considered to have an action to lower proliferation of cancer cells or induce cell death.
Thereto was added a solution (500 μl) of compounds 3, 5, 6, 7, which are bisphosphonic acid POM ester derivatives, obtained by serially diluting 10 mM stock solution 10-fold from 20 μM, or a solution (500 μl) of bisphosphonic acid 10, 12, 13, 14 compound obtained by serially diluting 10-fold from 200 μM, and the cells were suspended well. These conical tubes were stood at 37° C. for 4 hr, and the cells were washed 3 times with 5 ml of culture medium. To these cells was added 500 μl of medium, and the cells were suspended well. […] The cell culture medium was suspended well, and the plate was centrifuged at 1,700 rpm, 4° C. for 2 min and the culture supernatant (150 μl) was taken and placed in another round-bottomed 96 well plate. The plate was frozen at −80° C. overnight, left standing at room temperature for 1 hr, stirred well and 100 μl thereof was subjected to ELISA of TNF-α. The content of TNF-α was calculated from the analytical curve of TNF-α. These were performed in triplicate, and a graph showing bisphosphonic acid POM ester derivative and the corresponding bisphosphonic acid as one pair was plotted. […] The results of bisphosphonic acid POM ester derivative are shown by -●-, and the results of bisphosphonic acid are shown by -◯-.
The indirect antitumor action of bisphosphonic acid POM esters and bisphosphonic acids was quantitatively studied by comparison using EJ-1. […] Thereto was added a solution (500 μl) of a bisphosphonic acid POM ester derivative obtained by serially diluting 10 mM stock solution 10-fold from 20 μM, or a bisphosphonic acid solution (500 μl) serially diluted 10-fold from 200 μM was added, and the cells were suspended well. These conical tubes were stood at 37° C. for 4 hr, and the cells were washed 3 times with 5 ml of culture medium. To these cells was added 500 μl of medium, and the cells were suspended well. […] The cell culture medium was suspended well, and the plate was centrifuged at 1,700 rpm, 4° C. for 2 min and the culture supernatant (150 μl) was taken and placed in another round-bottomed 96 well plate. The plate was frozen at −80° C. overnight, left standing at room temperature for 1 hr, stirred well and 100 μl thereof was subjected to ELISA of TNF-α. The content of TNF-α was calculated from the analytical curve of TNF-α. These were performed in triplicate, and a half of the concentration of compounds 1-7, which are bisphosphonic acid POM ester derivatives, and compounds 8-14, which are bisphosphonic acids, necessary for producing the maximum amount of TNF-α from γδ T cells was calculated as TNF-α50, and summarized in Table 6.
Therefore, the TNF-α50 value of various bisphosphonic acid POM ester derivatives was calculated. […] Thereto was added a solution (500 μl) of compounds 1-7 and 15-39, which are bisphosphonic acid POM ester derivatives, and compound 42, which is other bisphosphonic acid ester derivative, obtained by serially diluting 10 mM stock solution 10-fold from 20 μM, and the cells were suspended well. These conical tubes were stood at 37° C. for 4 hr, and the cells were washed 3 times with 5 ml of culture medium. To these cells was added 500 μl of medium, and the cells were suspended well. […]
For orientation: ELISA stands for enzyme-linked immunosorbent assay.

The subject of experiment [3] is U937 cells. The experiment in a line: U937 cell growth inhibition (direct antitumor action, CellTiterGlo). To be noted: for pIC50: U937 cell growth inhibition, 4 days culture; for direct antitumor activity (in words): U937 growth inhibition. The method, then:
as §1, §2

pEC50, pIC50: −log10 of the molar value. Several values for one entry are separate records, joined by “and”; a condition that tells them apart may be missing. Equal values may be shown once. Read-outs that look alike come from different tables or passages of the source.

Results on 16 molecules are retold here after US10532065B2, “Bisphosphonic acid derivative and application for same” (NAGASAKI UNIVERSITY, priority 2014, dated 2020).

Regarding `CC(C)(C)C(=O)OCOP(=O)(OCOC(=O)C(C)(C)C)C(CNc1ccc(Br)cn1)P(=O)(OCOC(=O)C(C)(C)C)OCOC(=O)C(C)(C)C` [Compound 4, tetrakispivaloyloxymethyl 2-(5-bromopyridin-2-ylamino)ethylidene-1,1-bisphosphonate], the pIC50 in experiment [1] is 5.11; in experiment [3] it was 5.44. In experiment [2], the pEC50 was 6.15.
In the same order, the values of `CC(C)(C)C(=O)OCOP(=O)(OCOC(=O)C(C)(C)C)C(CNc1cc[nH]n1)P(=O)(OCOC(=O)C(C)(C)C)OCOC(=O)C(C)(C)C` [Compound 32, tetrakispivaloyloxymethyl 2-(pyrazol-3-ylamino) ethylidene-1,1-bisphosphonate] are 4.92, 5.20 and 5.36.
In the case of `CC(C)(C)C(=O)OCOP(=O)(OCOC(=O)C(C)(C)C)C(CNc1ccc(Cl)cn1)P(=O)(OCOC(=O)C(C)(C)C)OCOC(=O)C(C)(C)C` [Compound 18, tetrakispivaloyloxymethyl 2-(5-chloropyridin-2-ylamino)ethylidene-1,1-bisphosphonate], the pIC50 in experiment [1] was 5.32; in experiment [3], 5.48. The pEC50 in experiment [2] was 6.42.
For the molecule `CC(C)(C)C(=O)OCOP(=O)(OCOC(=O)C(C)(C)C)C(CNc1ccc2ccccc2n1)P(=O)(OCOC(=O)C(C)(C)C)OCOC(=O)C(C)(C)C` [Compound 30, tetrakispivaloyloxymethyl 2-(quinolin-2-ylamino)ethylidene-1,1-bisphosphonate], the results for the pIC50 in experiment [1] and in experiment [3] were 5.00 and 5.18, respectively. Moreover, the pEC50 in experiment [2] was less than 5.00.
As to `CC(C)(C)C(=O)OCOP(=O)(OCOC(=O)C(C)(C)C)C(CNc1nc(-c2ccccc2)cs1)P(=O)(OCOC(=O)C(C)(C)C)OCOC(=O)C(C)(C)C` [Compound 35, tetrakispivaloyloxymethyl 2-(4-phenylthiazol-2-ylamino)ethylidene-1,1-bisphosphonate], in experiment [1], the pIC50 is 5.46 and the “direct antitumor activity (in words)” value is listed as “high activity”. Besides, the pEC50 in experiment [2] was less than 5.00. In addition, in experiment [3], the pIC50 is 5.96 and the “direct antitumor activity (in words)” value is listed as “high activity”.
On to `CCCCCCCCc1cccnc1NCC(P(=O)(OCOC(=O)C(C)(C)C)OCOC(=O)C(C)(C)C)P(=O)(OCOC(=O)C(C)(C)C)OCOC(=O)C(C)(C)C` [Compound 23, tetrakispivaloyloxymethyl 2-(3-octanylpyridin-2-ylamino)ethylidene-1,1-bisphosphonate], for which the pIC50 is 5.35 in experiment [1] and 5.46 in experiment [3]. In addition, the pEC50 in experiment [2] was 5.47.
In the case of `Cc1ccnc(NCC(P(=O)(OCOC(=O)C(C)(C)C)OCOC(=O)C(C)(C)C)P(=O)(OCOC(=O)C(C)(C)C)OCOC(=O)C(C)(C)C)c1` [Compound 16, tetrakispivaloyloxymethyl 2-(4-methylpyridin-2-ylamino)ethylidene-1,1-bisphosphonate], the pIC50 in experiment [1] is 4.82; in experiment [3], 5.17. The pEC50 in experiment [2] is 5.29.
Turning to `CC(C)(C)C(=O)OCOP(=O)(OCOC(=O)C(C)(C)C)C(CNc1ncccc1OCc1ccccc1)P(=O)(OCOC(=O)C(C)(C)C)OCOC(=O)C(C)(C)C` [Compound 15, tetrakispivaloyloxymethyl 2-(3-benzyloxypyridin-2-ylamino)ethylidene-1,1-bisphosphonate], the pIC50 is 4.80 in experiment [1] and 5.15 in experiment [3]. For the same molecule, in experiment [2], the pEC50 was less than 5.00.
As for `CC(=O)OCOP(=O)(OCOC(C)=O)C(CNc1ccccn1)P(=O)(OCOC(C)=O)OCOC(C)=O` [Compound 42, tetrakisacetyloxymethyl 2-(pyridin-2-ylamino) ethylidene-1,1-bisphosphonate], the pIC50 in experiment [1] (EJ1, 96 h) was 4.80; in experiment [3] (Homo sapiens, U-937, 96 h), 4.77. The pEC50 in experiment [2] (EJ1) was 5.15.
Take `CC(C)(C)C(=O)OCOP(=O)(OCOC(=O)C(C)(C)C)C(CNc1ccon1)P(=O)(OCOC(=O)C(C)(C)C)OCOC(=O)C(C)(C)C` [Compound 36, tetrakispivaloyloxymethyl 2-(isoxazol-3-ylamino)ethylidene-1,1-bisphosphonate]: the values for the pIC50 in experiment [1] and in experiment [3] were 4.82 and 5.10, respectively. The pEC50 in experiment [2] is 5.10.
Turning to `CC(C)(C)C(=O)OCOP(=O)(OCOC(=O)C(C)(C)C)C(CNc1ccc(F)cn1)P(=O)(OCOC(=O)C(C)(C)C)OCOC(=O)C(C)(C)C` [Compound 5, tetrakispivaloyloxymethyl 2-(5-fluoropyridin-2-ylamino)ethylidene-1,1-bisphosphonate], the pIC50 in experiment [1] is 5.32 and 5.24; in experiment [3], 5.28. Besides, the pEC50 in experiment [2] is 7.16. Besides, in experiment [2] (EJ-1 pretreated with compound, γδ T cells), the “TNF-α production induction activity (in words)” value is “high activity”.
Take `O=P(O)(O)C(CNc1ccc(Br)cn1)P(=O)(O)O` [Compound 11, 2-(5-bromopyridin-2-ylamino)ethylidene-1,1-bisphosphonic Acid, reference compound]: the pIC50 in experiment [1] (EJ1, 96 h) was 3.54; in experiment [3] (Homo sapiens, U-937, 96 h) it was 3.70. Further, the pEC50 in experiment [2] (EJ1) was less than 4.00.
With `Cc1ccc(NCC(P(=O)(OCOC(=O)C(C)(C)C)OCOC(=O)C(C)(C)C)P(=O)(OCOC(=O)C(C)(C)C)OCOC(=O)C(C)(C)C)nc1` [Compound 3, tetrakispivaloyloxymethyl 2-(5-methylpyridin-2-ylamino)ethylidene-1,1-bisphosphonate], the figures for the pIC50 in experiment [1] and in experiment [3] were 5.27 and 5.25, respectively. Also, the pEC50 in experiment [2] is 6.32.
Regarding `CC(C)(C)C(=O)OCOP(=O)(OCOC(=O)C(C)(C)C)C(CNc1ccnc(Br)c1)P(=O)(OCOC(=O)C(C)(C)C)OCOC(=O)C(C)(C)C` [Compound 29, tetrakispivaloyloxymethyl 2-(2-bromopyridin-4-ylamino)ethylidene-1,1-bisphosphonate], the values for the pIC50 in experiment [1] and in experiment [3] were 4.92 and 5.18, respectively. Besides, the pEC50 in experiment [2] was less than 5.00.
As to `CC(C)(C)C(=O)OCOP(=O)(OCOC(=O)C(C)(C)C)C(Cn1ccc2cccnc21)P(=O)(OCOC(=O)C(C)(C)C)OCOC(=O)C(C)(C)C` [Compound 31, tetrakispivaloyloxymethyl 2-(7-azaindol-1-yl)ethylidene-1,1-bisphosphonate], in experiment [1], the pIC50 is 5.77 and the “direct antitumor activity (in words)” value is recorded as “high activity”. In addition, in experiment [2], the pEC50 is 5.80. For the same molecule, in experiment [3], the pIC50 was 5.66 and the “direct antitumor activity (in words)” value is “high activity”.
`CC(C)(C)C(=O)OCOP(=O)(OCOC(=O)C(C)(C)C)C(CNc1cc(Br)ccn1)P(=O)(OCOC(=O)C(C)(C)C)OCOC(=O)C(C)(C)C` [Compound 28, tetrakispivaloyloxymethyl 2-(4-bromopyridin-2-ylamino)ethylidene-1,1-bisphosphonate]: the pIC50 in experiment [1] was 5.22; in experiment [3], 5.15. Moreover, in experiment [2], the pEC50 is 5.19.

The pIC50 is −log10 of the IC50, conventionally taken in molar units. A higher pIC50 goes with a small IC50.
